Data from patent US10047041B2, “Amino-phenyl-sulfonyl-acetate derivatives and use thereof” (CJ Healthcare Corporation, priority 2014, dated 2018).

Tested on: ICR mice
Test: Oral glucose tolerance test (OGTT) in ICR mice
Type: in vivo
Conditions: normal fasted ICR mice; oral 50, 20, 5 and 1 mg/kg in 0.5% methylcellulose; glucose 2 g/kg; student's t-test p<0.05
Experimental: In order to evaluate the ability to control blood glucose in the body for the compound according to the present invention, an oral glucose tolerance test was conducted using ICR mice. The day before the test, normal ICR mice were separated into four per group, and were fasted for at least 16 hours. The body weight of each mouse was measured and recorded in the morning on the day of the test; The compound was prepared in a concentration of 5 mg/mL in 0.5% methylcellulose such that it could be administered at a dose of 50 mg/kg, and was then further diluted to be in concentrations of […] and administered at the same volume such that it can be administered at doses of 20 mg/kg, 5 mg/kg, and 1 mg/kg. Glucose was dissolved in drinking water and prepared in a concentration of 200 mg/mL such that it could be administered at a dose of 2 g/kg. Before administering the compounds, a small amount of blood of the mice was drawn from the caudal vein, and blood glucose was measured using ACCU-CHEK Active (Art. No. 2248891001), a blood glucose meter, and recorded. A solvent (0.5% MC) as a vehicle and the compounds prepared above were administered to all mice at a dose of 10 mL per 1 kg of body weight using a sonde. Glucose was further administered, and the blood glucose was measured in each mouse after 0.5 hours, 1 hour, and 2 hours. […]

Cc1ccccc1-c1cccc(CNc2ccc(S(=O)(=O)CC(=O)O)cc2)c1 [Example 1, 2-(4-((2′-methyl-biphenyl-3-yl)methylamino)phenylsulfonyl)acetic acid]
effect of lowering blood glucose (glucose AUC0-2 hr after glucose administration): significant effect of lowering blood glucose
